The values that follow come from paper PMC6269737, “Effect of Honokiol on Cytochrome P450 and UDP-Glucuronosyltransferase Enzyme Activities in Human Liver Microsomes” (Molecules, 2013).

The structures appear in SMILES notation.

For one series, the target named is CYP2C9 (Homo sapiens, UniProt P11712). The series can be described thus: biochemical. As to conditions: for IC50: IC50 (μM) of honokiol, Diclofenac 4-hydroxylation. As for the experimental part: (§1) The inhibitory potential (IC50 values) of honokiol on CYP activities was evaluated in pooled human liver microsomes using liquid chromatography-tandem mass spectrometry (LC-MS/MS). […] Honokiol was dissolved in acetonitrile. […] After a 3 min preincubation at 37 °C, the reactions were initiated by addition of an NADP generating system and incubated for 15 min at 37 °C in a shaking water bath. The reaction was then stopped by placement of the tubes on ice and adding 100 μL of ice-cold methanol containing internal standards (^13C2, ^15N-acetaminophen for acetaminophen and N-deethylamodiaquine, and d9-1-hydroxybufuralol for 4-hydroxydiclofenac, 4-hydroxybupropion, 7-hydroxycoumarin, 4-hydroxymephenytoin, 1'-hydroxybufuralol, and 1'-hydroxymidazolam). The incubation mixtures were then centrifuged at 13,000 × g for 4 min. All incubations were performed in triplicate, and average values were used.
Chain of CYP2C9 (P11712 whole entry): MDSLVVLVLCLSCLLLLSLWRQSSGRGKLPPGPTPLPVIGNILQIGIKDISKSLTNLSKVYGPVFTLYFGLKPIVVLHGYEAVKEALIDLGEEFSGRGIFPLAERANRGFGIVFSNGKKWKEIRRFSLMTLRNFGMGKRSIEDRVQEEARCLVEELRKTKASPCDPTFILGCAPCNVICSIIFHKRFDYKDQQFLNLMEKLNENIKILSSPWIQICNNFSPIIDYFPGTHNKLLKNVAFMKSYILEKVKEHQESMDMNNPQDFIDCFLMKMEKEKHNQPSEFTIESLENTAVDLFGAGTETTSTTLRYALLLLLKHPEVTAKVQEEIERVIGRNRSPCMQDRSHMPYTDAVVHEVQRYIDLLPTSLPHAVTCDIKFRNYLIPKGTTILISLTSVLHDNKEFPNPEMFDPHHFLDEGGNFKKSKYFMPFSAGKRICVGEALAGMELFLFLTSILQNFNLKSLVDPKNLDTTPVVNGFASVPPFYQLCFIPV
(§2) The reaction was initiated by the addition of the cocktail containing seven CYP probe substrates and bupropion.
(§3) The metabolites formed from the seven CYP cocktail substrates were simultaneously determined according to our previously described LC-MS/MS method with minor modification; the concentration of 4-hydroxybupropion for CYP2B6 activity was quantified separately by LC-MS/MS. A tandem mass spectrometer (TSQ Quantum Access, Thermo Scientific, San Jose, CA, USA) coupled with a Nanospace SI-2 LC system (Tokyo, Japan) was used. The column and autosampler temperatures were 50 °C and 6 °C, respectively. The mass spectrometer was equipped with an electrospray ionization (ESI) source and operated in positive ion mode. The ESI source settings for ionization of the metabolites were as follows: capillary voltage, 4200 V; vaporizer temperature, 350 °C; capillary temperature 330 °C; sheath gas pressure, 35 psi; auxiliary gas pressure, 15 psi. Quantification was performed by selected reaction monitoring (SRM) of [M+H]^+ ions and the related product ions for each metabolite. […] Analytical data were processed using Xcalibur® software (Thermo Scientific).
(§4) The incubation mixtures were centrifuged at 13,000 × g for 4 min, and the supernatants were diluted as follows: dilution of 20 μL supernatant with 180 μL of 25% methanol for CYP2C8; dilution of 50 μL supernatant with 50 μL of water for CYP2C9, CYP2C19, CYP2D6, and CYP1A2; and dilution of 20 μL supernatant with 80 μL of water for CYP2B6. Aliquots (5 μL) of the diluted supernatants were then analyzed by LC-MS/MS.
(§5) The apparent kinetic parameters for inhibitory potential (Ki values) were estimated from the fitted curves using Enzyme Kinetics Ver. 1.1 software (Systat Software Inc.).

Another series has as its target CYP2C19 (Homo sapiens, UniProt P33261). The series can be described thus: biochemical. As to conditions: for IC50: IC50 (μM) of honokiol, S-Mephenytoin 4'-hydroxylation. Here is the method: as §1, §2, §3, §4, §5
The target in the next series is T1, CYP2C8 (Homo sapiens, UniProt P10632).
T1 sequence (P10632 1-490): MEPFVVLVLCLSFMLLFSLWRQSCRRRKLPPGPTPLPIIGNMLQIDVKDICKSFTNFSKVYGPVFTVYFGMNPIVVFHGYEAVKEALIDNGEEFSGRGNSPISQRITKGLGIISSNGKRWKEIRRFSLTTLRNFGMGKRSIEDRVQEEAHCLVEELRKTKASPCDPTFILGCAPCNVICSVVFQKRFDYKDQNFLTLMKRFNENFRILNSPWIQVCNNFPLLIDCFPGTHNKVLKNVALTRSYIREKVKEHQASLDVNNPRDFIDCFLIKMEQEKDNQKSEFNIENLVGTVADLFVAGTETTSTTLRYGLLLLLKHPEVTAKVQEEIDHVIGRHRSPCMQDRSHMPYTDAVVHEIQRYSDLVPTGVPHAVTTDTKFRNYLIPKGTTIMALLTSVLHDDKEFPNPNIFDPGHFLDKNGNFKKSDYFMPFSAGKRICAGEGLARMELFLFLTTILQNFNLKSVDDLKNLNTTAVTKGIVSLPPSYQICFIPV
Briefly: biochemical. As to conditions: for IC50: IC50 (μM) of honokiol, Amodiaquine N-deethylation. As for the experimental part:
as §1, §2, §3, §4, §5

Another series deals with T2, UGT1A9 (Homo sapiens, UniProt O60656).
T2 sequence (O60656 26-530): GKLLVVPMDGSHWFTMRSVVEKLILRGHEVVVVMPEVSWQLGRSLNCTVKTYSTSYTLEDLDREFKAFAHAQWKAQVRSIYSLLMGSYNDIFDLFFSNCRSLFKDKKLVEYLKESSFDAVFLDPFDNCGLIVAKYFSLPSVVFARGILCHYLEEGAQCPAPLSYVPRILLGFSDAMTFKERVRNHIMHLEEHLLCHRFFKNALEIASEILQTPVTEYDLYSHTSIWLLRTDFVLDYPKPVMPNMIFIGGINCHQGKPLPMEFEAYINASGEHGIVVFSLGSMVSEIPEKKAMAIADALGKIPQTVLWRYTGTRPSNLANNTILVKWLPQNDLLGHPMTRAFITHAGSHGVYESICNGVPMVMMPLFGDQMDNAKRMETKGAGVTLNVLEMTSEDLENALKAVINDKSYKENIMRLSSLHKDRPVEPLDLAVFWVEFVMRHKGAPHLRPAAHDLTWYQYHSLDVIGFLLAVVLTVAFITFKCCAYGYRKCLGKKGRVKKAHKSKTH
Briefly: UGT1A9-catalyzed propofol glucuronidation inhibition in pooled human liver microsomes. The series is classed as in vitro ADME. As to conditions: pooled HLM (H161). As for the experimental part: The inhibitory potency (IC50 value) of honokiol on UGT1A1-catalyzed 17β-estradiol 3-glucuronidation, UGT1A4-catalyzed trifluoperazine glucuronidation, UGT1A9-catalyzed propofol glucuronidation, and UGT2B7-catalyzed azidothymidine glucuronidation activities was determined in pooled human liver microsomes by LC-MS/MS [48]. […] Reactions were initiated by the addition of UDPGA (final concentration, 5 mM), and incubations were carried out at 37 °C in a shaking water bath for 30 min. Reactions were terminated by adding 100 μL of ice-cold methanol containing an internal standard (500 ng/mL ezetimibe for 17β-estradiol 3-glucuronide and propofol glucuronide; 30 ng/mL meloxicam for trifluoperazine glucuronide and azidothymidine glucuronide). The incubation mixtures were then centrifuged at 13,000 × g for 4 min, followed by dilution of 30 μL of the supernatant with 70 μL of water. An aliquot (5 μL) was injected onto the LC-MS/MS. All incubations were performed in triplicate and the mean values were used. Glucuronides produced from UGT isoform-specific substrates were determined by LC-MS/MS [49].
The incubation mixtures were then centrifuged at 13,000 × g for 4 min, after which 30 μL of the supernatant was diluted with 70 μL of water. Aliquots (5 μL) were then analyzed by LC-MS/MS.
as §5

[1] abbreviates: with preincubation, 30 min preincubation with NADPH.

Broadly, the Ki is the dissociation constant of the complex between target and ligand, obtained from inhibition or displacement. A lower Ki goes with a stronger hold on the target. For orientation: IC50 means the concentration that gives 50% inhibition. Low values mean greater potency, high ones weaker potency.

Chain of CYP2C19 (P33261 whole entry): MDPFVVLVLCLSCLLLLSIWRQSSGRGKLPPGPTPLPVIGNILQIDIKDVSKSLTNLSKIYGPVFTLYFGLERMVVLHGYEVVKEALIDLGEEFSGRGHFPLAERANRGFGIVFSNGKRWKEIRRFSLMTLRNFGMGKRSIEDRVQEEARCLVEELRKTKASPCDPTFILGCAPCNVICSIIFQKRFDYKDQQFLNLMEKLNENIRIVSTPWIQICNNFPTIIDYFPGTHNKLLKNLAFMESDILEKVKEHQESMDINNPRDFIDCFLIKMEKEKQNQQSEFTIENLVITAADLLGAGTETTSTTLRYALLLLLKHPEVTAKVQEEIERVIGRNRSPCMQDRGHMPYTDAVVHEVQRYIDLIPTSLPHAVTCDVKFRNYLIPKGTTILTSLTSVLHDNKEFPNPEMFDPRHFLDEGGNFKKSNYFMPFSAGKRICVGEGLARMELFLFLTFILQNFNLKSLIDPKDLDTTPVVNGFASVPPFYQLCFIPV

With `C=CCc1ccc(O)c(-c2ccc(O)c(CC=C)c2)c1` [honokiol, 2-(4-hydroxy-3-prop-2-enyl-phenyl)-4-prop-2-enyl-phenol], the Ki at CYP2C9 is 540 nM; at CYP2C19, 570 nM; at CYP2C8, 4900 nM; at UGT1A9 (Propofol glucuronidation, 5–40 μM propofol), 300 nM. Also, the IC50 worked out at 4.1 µM at CYP2C9 (no preincubation, 10 μM diclofenac, pooled HLM (H161)); 3.9 µM on CYP2C9 (setting [1]); 2.2 µM against CYP2C19 (no preincubation, 100 μM [S]-mephenytoin, pooled HLM (H161)); 2.9 µM at CYP2C19 (setting [1]); 8.9 µM against CYP2C8 (no preincubation, 2.5 μM amodiaquine, pooled HLM (H161)); 15.5 µM at CYP2C8 (setting [1]). The molecule further returned an IC50 against UGT1A9 (propofol glucuronidation, 10 μM propofol) of 980 nM. Besides, the Inhibition mode entry at UGT1A9 (Propofol glucuronidation) is given as “competitive”. Besides, 960 nM corresponded to half-maximal inhibition at UGT1A9 (human, pooled human liver microsomes, pH 7.4, probe propofol (10 μM), propofol glucuronidation, 10 μM propofol) (IC50 at 30 min).
